Experimental data from PubChem BioAssay AID588488 (The Scripps Research Institute Molecular Screening Center, 2011).
Activity calls are given as the source filed them.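 Rule for the calls: active = inhibition of 50% or more in at least one of the four enzyme panels; inactive = below 50% inhibition in every panel.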

Legend:
Assay in all cases: PAD1-4 inhibition by cherry-picked hits, late-stage follow-up, selectivity assay for PAD4 inhibitor project, biochemical, colorimetric, BAEE substrate, HTS hits (AID 588488)
[1] = target: Protein-arginine deiminase type-1 (Homo sapiens) (UniProt Q9ULC6); settings: Recombinant PAD1-4, BAEE citrulline colorimetric absorbance; PAD1; at 10 µM; stronger effect = higher value
Chain of Protein-arginine deiminase type-1 (Homo sapiens) (Q9ULC6 whole entry, looked up): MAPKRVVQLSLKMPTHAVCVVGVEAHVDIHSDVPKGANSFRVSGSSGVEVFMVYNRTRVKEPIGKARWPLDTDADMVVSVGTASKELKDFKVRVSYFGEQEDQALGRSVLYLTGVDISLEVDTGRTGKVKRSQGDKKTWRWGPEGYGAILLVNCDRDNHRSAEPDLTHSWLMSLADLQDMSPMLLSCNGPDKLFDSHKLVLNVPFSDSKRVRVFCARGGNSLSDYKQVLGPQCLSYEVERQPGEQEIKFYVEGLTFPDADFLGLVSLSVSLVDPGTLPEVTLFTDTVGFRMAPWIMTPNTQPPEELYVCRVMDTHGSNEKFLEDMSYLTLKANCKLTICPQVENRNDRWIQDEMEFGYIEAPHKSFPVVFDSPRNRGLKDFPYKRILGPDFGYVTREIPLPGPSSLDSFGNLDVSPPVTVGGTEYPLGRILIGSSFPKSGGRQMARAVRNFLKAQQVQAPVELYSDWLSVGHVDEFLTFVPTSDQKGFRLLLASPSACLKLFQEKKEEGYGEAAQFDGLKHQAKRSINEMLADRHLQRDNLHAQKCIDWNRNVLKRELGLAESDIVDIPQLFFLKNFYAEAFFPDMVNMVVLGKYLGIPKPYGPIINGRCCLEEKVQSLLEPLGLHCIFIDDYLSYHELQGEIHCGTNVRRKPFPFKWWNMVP

[2] = target: Protein-arginine deiminase type-2 (Homo sapiens) (UniProt Q9Y2J8); settings: Recombinant PAD1-4, BAEE citrulline colorimetric absorbance; PAD2; at 10 µM; stronger effect = higher value
Chain of Protein-arginine deiminase type-2 (Homo sapiens) (Q9Y2J8 whole entry, looked up): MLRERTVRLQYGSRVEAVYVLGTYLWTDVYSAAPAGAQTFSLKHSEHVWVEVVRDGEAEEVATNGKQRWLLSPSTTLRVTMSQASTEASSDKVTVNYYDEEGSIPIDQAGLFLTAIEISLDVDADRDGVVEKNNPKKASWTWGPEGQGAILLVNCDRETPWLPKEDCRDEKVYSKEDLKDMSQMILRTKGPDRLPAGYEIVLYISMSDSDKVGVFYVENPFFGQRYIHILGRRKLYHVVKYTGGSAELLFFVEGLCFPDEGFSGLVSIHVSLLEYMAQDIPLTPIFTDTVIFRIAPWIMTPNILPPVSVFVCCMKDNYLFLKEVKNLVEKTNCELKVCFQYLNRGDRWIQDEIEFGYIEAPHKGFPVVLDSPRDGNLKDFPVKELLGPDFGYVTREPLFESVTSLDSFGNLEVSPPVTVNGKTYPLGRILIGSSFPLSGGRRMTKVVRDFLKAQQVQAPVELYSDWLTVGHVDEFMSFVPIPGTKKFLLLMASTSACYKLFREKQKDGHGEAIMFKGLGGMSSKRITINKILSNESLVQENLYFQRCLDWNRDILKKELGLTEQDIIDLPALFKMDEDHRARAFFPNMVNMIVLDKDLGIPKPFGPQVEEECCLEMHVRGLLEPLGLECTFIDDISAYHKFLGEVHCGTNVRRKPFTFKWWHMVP

[3] = target: Protein-arginine deiminase type-3 (Homo sapiens) (UniProt Q9ULW8); settings: Recombinant PAD1-4, BAEE citrulline colorimetric absorbance; PAD3; at 10 µM; stronger effect = higher value
Chain of Protein-arginine deiminase type-3 (Homo sapiens) (Q9ULW8 whole entry, looked up): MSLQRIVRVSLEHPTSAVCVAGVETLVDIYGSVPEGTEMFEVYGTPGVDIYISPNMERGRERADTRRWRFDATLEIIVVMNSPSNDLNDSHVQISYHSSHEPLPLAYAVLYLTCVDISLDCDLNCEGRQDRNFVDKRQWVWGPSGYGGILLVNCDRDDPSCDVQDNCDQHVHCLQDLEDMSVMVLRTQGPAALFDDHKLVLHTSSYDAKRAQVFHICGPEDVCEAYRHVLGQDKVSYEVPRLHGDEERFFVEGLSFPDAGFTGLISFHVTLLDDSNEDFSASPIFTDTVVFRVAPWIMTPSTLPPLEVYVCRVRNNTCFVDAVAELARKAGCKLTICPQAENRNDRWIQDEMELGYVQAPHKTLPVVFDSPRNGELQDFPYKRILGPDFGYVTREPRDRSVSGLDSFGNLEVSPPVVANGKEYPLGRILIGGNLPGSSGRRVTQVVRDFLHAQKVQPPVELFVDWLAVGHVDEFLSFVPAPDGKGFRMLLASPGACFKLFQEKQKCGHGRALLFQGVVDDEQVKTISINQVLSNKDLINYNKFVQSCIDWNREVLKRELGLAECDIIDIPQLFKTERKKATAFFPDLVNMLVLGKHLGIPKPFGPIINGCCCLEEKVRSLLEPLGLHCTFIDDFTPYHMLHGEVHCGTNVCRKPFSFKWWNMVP

[4] = target: Protein-arginine deiminase type-4 (Homo sapiens) (UniProt Q9UM07); settings: Recombinant PAD1-4, BAEE citrulline colorimetric absorbance; PAD4; at 10 µM; stronger effect = higher value
Chain of Protein-arginine deiminase type-4 (Homo sapiens) (Q9UM07 whole entry, looked up): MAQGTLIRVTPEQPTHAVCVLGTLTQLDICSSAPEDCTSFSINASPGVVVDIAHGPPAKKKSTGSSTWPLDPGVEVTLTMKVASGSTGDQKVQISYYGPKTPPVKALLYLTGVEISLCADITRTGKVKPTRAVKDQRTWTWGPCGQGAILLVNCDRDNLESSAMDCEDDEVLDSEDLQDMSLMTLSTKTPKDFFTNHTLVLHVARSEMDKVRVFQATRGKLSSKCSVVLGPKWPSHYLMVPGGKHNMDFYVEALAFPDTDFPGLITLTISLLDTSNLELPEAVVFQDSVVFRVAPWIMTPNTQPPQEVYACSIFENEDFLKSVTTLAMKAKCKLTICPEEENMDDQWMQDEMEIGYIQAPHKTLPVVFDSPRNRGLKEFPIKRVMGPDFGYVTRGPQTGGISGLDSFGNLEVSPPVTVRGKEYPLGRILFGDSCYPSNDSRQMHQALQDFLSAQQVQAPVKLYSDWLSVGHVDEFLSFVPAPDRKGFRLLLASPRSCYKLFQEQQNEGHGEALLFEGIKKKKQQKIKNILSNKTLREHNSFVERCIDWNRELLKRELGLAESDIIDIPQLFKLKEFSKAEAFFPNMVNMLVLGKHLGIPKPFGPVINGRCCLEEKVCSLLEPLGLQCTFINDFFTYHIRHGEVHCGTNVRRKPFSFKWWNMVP

Measured: inhibition

Cn1c(=O)c2c(ncn2CC(=O)Nc2nc(-c3ccccc3Cl)cs2)n(C)c1=O
inactive: [1] 8% | [2] 45% | [3] 3% | [4] 25%

COc1ccc(C2C(C#N)=C(N)N(N(C)C)C3=C2C(=O)CCC3)cc1 (configuration not stated)
inactive: [1] 9% | [2] 7% | [3] -1% | [4] 21%

CCOc1nc(Nc2ccc(OC)cc2OC)nc(OCC)n1
inactive: [1] 27% | [2] 12% | [3] -2% | [4] 9%

COc1cccc(NC(=O)CN(C)C(=O)C23CC4CC(CC(Cl)(C4)C2)C3)c1
inactive: [1] 6% | [2] 20% | [3] -3% | [4] 26%

Cc1nn(-c2ccccc2)c(C)c1NC(=O)COc1ccc(Cl)cc1Cl
inactive: [1] 2% | [2] 17% | [3] -3% | [4] 16%

Cc1ccc(CNC(=O)c2ccc(C)c(S(=O)(=O)N3CCCCC3)c2)cc1
inactive: [1] 21% | [2] 15% | [3] -2% | [4] 13%

N#CCCN(C(=O)Cn1nc(C(=O)O)c2ccccc2c1=O)c1ccccc1
inactive: [1] 13% | [2] 10% | [3] -12% | [4] 17%

S=C(NCc1ccco1)Nc1cccc(Cl)c1
inactive: [1] 17% | [2] 13% | [3] -2% | [4] 11%

COC(=O)c1cc(C)nc(Sc2ccccc2N)n1
inactive: [1] 10% | [2] 15% | [3] -14% | [4] 6%

CC(NC(=O)Nc1ccc(O)cc1)(C(F)(F)F)C(F)(F)F
inactive: [1] 8% | [2] -10% | [3] -11% | [4] 14%

O=C(NCC1CCCO1)c1cc2c([nH]c3ccccc32)c(-c2ccc(F)cc2)n1 (configuration not stated)
inactive: [1] 5% | [2] 20% | [3] -2% | [4] -3%

CN(C)CCCNc1cn[nH]c(=O)c1Cl
inactive: [1] 27% | [2] 20% | [3] 2% | [4] 42%

Cc1c(NC(=O)CSc2nccn2C)c(=O)n(-c2ccccc2)n1C
inactive: [1] 22% | [2] 3% | [3] -18% | [4] 0%

Cc1nonc1OC(C)CNc1ccc([N+](=O)[O-])cc1 (configuration not stated)
inactive: [1] 8% | [2] 27% | [3] 7% | [4] 12%

COc1ccc(CCNC(=O)COC(=O)c2ccc(C)s2)cc1
inactive: [1] 5% | [2] 9% | [3] -24% | [4] 3%

Cc1cc(N(C)NC(=S)Nc2ccccc2)nc(C)n1
inactive: [1] 5% | [2] 17% | [3] -6% | [4] 1%

COc1cccc(/C=C2/CN(C)CC3=C2OC(N)=C(C#N)C3c2cccc(OC)c2)c1 (configuration not stated)
inactive: [1] 18% | [2] 20% | [3] -20% | [4] 20%

Cc1c(C(=O)N2CCCCC2)c(S(=O)(=O)N2CCN(c3ccc(Cl)cc3)CC2)c(C)n1C
inactive: [1] 6% | [2] 4% | [3] -6% | [4] 15%

Cc1cc2ncn(-c3ncccc3[N+](=O)[O-])c2cc1C
inactive: [1] 25% | [2] -8% | [3] 8% | [4] 24%

Cc1cc(-c2nnc(SCC(=O)Nc3ccc(F)c(F)c3)n2N)n[nH]1
inactive: [1] 1% | [2] 6% | [3] -7% | [4] -1%

COc1cccc(NC(=O)C2c3cc(OC)c(OC)cc3C(=O)N(C)C2c2cccnc2)c1 (configuration not stated)
inactive: [1] 5% | [2] 26% | [3] -3% | [4] 8%

COc1ccc(S(=O)(=O)Nc2ccccc2C)cc1
inactive: [1] 31% | [2] 14% | [3] -3% | [4] 18%

CCN(CC)S(=O)(=O)c1ccc(N=NC2=C(O)CCCC2=O)cc1
inactive: [1] 0% | [2] 15% | [3] 17% | [4] 10%

COc1ccc(-c2cc(=O)[nH][nH]2)cc1
inactive: [1] 14% | [2] 26% | [3] 3% | [4] 20%

CN(C)CCN(Cc1ccccc1)c1ccccn1
inactive: [1] -7% | [2] 22% | [3] -9% | [4] 6%

O=c1cc(-c2ccc(Cl)cc2)[nH][nH]1
inactive: [1] 1% | [2] -6% | [3] -4% | [4] 4%

N#CCCn1[nH]c(-c2ccccc2)cc1=O
inactive: [1] 3% | [2] 39% | [3] -12% | [4] 28%

Cc1nn(-c2cccc(Cl)c2)c2c1C(c1cccnc1)C(C#N)=C(N)O2 (configuration not stated)
inactive: [1] -3% | [2] 7% | [3] -4% | [4] 1%

CC(=O)N(Cc1cc(=O)[nH]c2ccccc12)c1cccc(C)c1
inactive: [1] 4% | [2] 21% | [3] -3% | [4] 16%

CCN(CC)c1cccc(OC2=NS(=O)(=O)c3ccccc32)c1
inactive: [1] 3% | [2] 18% | [3] 6% | [4] 16%

Cc1oc2c(C)c(O)ccc2c(=O)c1-c1ccc2ccccc2n1
inactive: [1] 17% | [2] 9% | [3] -19% | [4] 18%

Cc1ccc(C2CC(=O)Oc3cc(O)ccc32)cc1 (configuration not stated)
inactive: [1] 7% | [2] 17% | [3] -3% | [4] 12%

COc1cccc2cc(C(=O)NC3CC(C)(C)NC(C)(C)C3)c(=O)oc12
inactive: [1] -2% | [2] 3% | [3] -2% | [4] 17%
